# Results as given in US12673038B2, “Antimycotic methoxyflavone and fluconazole combination for inhibiting cryptococcus” (Karl-Franzens-Universität Graz, priority 2019, dated 2026).
# Key:
# S. cerevisiae BY4741 [1] = assay: Clonogenic survival assay (CFU plating); assay type: cell-based, Saccharomyces cerevisiae; conditions: 200 μM 5-MF, day 3 after treatment, untreated control 100%
# Description: S. cerevisiae BY4741 cells were grown in SMD minimal media to mid-log phase and then treated with the indicated concentrations of 5-MF; control cells were treated with the same amount of solvent (DMSO). (A) Clonogenicity was assayed by plating 500 cells on YPD agar plates and colony forming units (CFUs) were counted to calculate survival rates. (B) Yeast cells were analyzed for cell death markers via AnnV/PI co-staining using flow cytometry. (C) The accumulation of reactive oxygen species was monitored by dihydrotethidium (DHE) to ethidium (Eth) conversion using flow cytometry. Assays in (A-C) were performed on day 3 after treatment. […] Data was analyzed by one-way ANOVA and corrected for multiple comparison using a Bonferroni post-hoc test. ns: not significant, * p<0.05, *** p<0.001, **** p<0.0001. […] Yeast strains were streaked on YPD agar plates and allowed to grow for two days at 28° C. or 30° C., plates were then stored for up to one week at 4° C. […] Survival upon treatment with substances or combinations was analyzed by plating serial dilutions of treated cultures onto YPD agar plates. Plates were incubated for two days at 28° C., colony forming units (CFUs) were counted and survival was calculated compared to the untreated control.
# S. cerevisiae BY4741 [2] = assay: AnnexinV/PI co-staining for cell death markers (flow cytometry); assay type: cell-based, Saccharomyces cerevisiae; conditions: day 3 after treatment, indicated concentrations
# Description: S. cerevisiae BY4741 cells were grown in SMD minimal media to mid-log phase and then treated with the indicated concentrations of 5-MF; control cells were treated with the same amount of solvent (DMSO). (A) Clonogenicity was assayed by plating 500 cells on YPD agar plates and colony forming units (CFUs) were counted to calculate survival rates. (B) Yeast cells were analyzed for cell death markers via AnnV/PI co-staining using flow cytometry. (C) The accumulation of reactive oxygen species was monitored by dihydrotethidium (DHE) to ethidium (Eth) conversion using flow cytometry. Assays in (A-C) were performed on day 3 after treatment. […] Data was analyzed by one-way ANOVA and corrected for multiple comparison using a Bonferroni post-hoc test. ns: not significant, * p<0.05, *** p<0.001, **** p<0.0001. […] Cell death markers were assessed by AnnexinV/PI co-staining. Therefore, 1-2×10^7 cells were harvested and treated with 3 μL […]; Sigma, Germany) and 15 μL glucuronidase/arylsulfatase (4.5 U/mL; Roche, Austria) for sphaeroblastation (60 min at 28° C. and 145 rpm). Resulting sphaeroblasts were co-stained with AnnexinV (Roche, Austria) and PI (Sigma, Germany) and analyzed via flow cytometry, using an LSRII Fortessa (BD, Ex: 488 nm; Em: 695 nm for PI and 530 nm for FITC). At least 30,000 cells were analyzed for each sample.
# S. cerevisiae BY4741 [3] = assay: ROS accumulation by DHE to ethidium conversion (flow cytometry); assay type: cell-based, Saccharomyces cerevisiae; conditions: day 3 after treatment
# Description: S. cerevisiae BY4741 cells were grown in SMD minimal media to mid-log phase and then treated with the indicated concentrations of 5-MF; control cells were treated with the same amount of solvent (DMSO). (A) Clonogenicity was assayed by plating 500 cells on YPD agar plates and colony forming units (CFUs) were counted to calculate survival rates. (B) Yeast cells were analyzed for cell death markers via AnnV/PI co-staining using flow cytometry. (C) The accumulation of reactive oxygen species was monitored by dihydrotethidium (DHE) to ethidium (Eth) conversion using flow cytometry. Assays in (A-C) were performed on day 3 after treatment. […] Data was analyzed by one-way ANOVA and corrected for multiple comparison using a Bonferroni post-hoc test. ns: not significant, * p<0.05, *** p<0.001, **** p<0.0001. […] Accumulation of ROS was determined by dihydroethidium (DHE) staining as described for PI staining, using a 100 ng/mL DHE solution (Sigma, Germany) in PBS. After staining cells were sedimented again and resuspended in PBS to avoid dye deposition. For each sample, at least 30,000 cells were analyzed using flow cytometry (LSRII Fortessa, BD; Ex: 488 nm, Em: 585 nm).
# C. albicans SC5314 = assay: MIC determination, CLSI protocol M27-A3, OD490; assay type: cell-based, Candida albicans; conditions: C. albicans SC5314, 50 μM 5-MF, untreated control 100%
# C. glabrata BG2 = assay: MIC determination, CLSI protocol M27-A3, OD490; assay type: cell-based, Candida glabrata; conditions: Nakaseomyces glabratus; C. glabrata BG2 planktonic growth, mean±SEM
# [4] = test system: C. albicans SC5314 biofilms; assay: Biofilm inhibition concentration (BIC), CTB staining; assay type: cell-based; conditions: Candida albicans, C. albicans SC5314 biofilm formation, mean±SEM, read-out: BIC-50
# C. glabrata BG2 biofilms = assay: Biofilm inhibition concentration (BIC), XTT staining; assay type: cell-based, Candida glabrata; conditions: Nakaseomyces glabratus, BG2BIOFILMS, C. glabrata BG2 biofilm formation, mean±SEM, read-out: BIC-50
# C. glabrata biofilms = assay: Biofilm inhibition by plating (CFU of biofilm cells); assay type: cell-based, Candida glabrata; conditions: different concentrations of 5-MF
# C. albicans = assay: In vitro antifungal activity of flavone in combination with azoles, growth via OD490; assay type: cell-based, Candida albicans; conditions: OD490, flavone plus azole vs each alone
# Candida albicans = conditions: according to CN 105 669 625 A; cited from earlier work
structure (smiles),measurement,setting,value
"COc1cccc2oc(-c3ccccc3)cc(=O)c12 [5-MF, 5-methoxyflavone]","yeast survival (clonogenic assay, CFUs)",S. cerevisiae BY4741 [1],31%
same,"cell death markers, PI-positive fraction (AnnV/PI co-staining)",S. cerevisiae BY4741 [2],mainly increased the PI-positive fraction in a concentration-dependent manner
same,accumulation of reactive oxygen species (DHE to Eth conversion),S. cerevisiae BY4741 [3],causes accumulation of reactive oxygen species
same,growth of planktonic cells compared to untreated cells,C. albicans SC5314,about 60%
same,MIC50,C. glabrata BG2,202 ± 35.6 µM
same,IC50,[4],216 ± 26.6 µM
same,IC50,C. glabrata BG2 biofilms,224 ± 15.6 µM
same,number of biofilm cells (CFUs on YPD agar),C. glabrata biofilms,decreased in a concentration-dependent manner
same,enhancement of the antifungal activity of azoles in the presence of the flavone,C. albicans,enhancement of the antifungal activity
same,synergistic antifungal effect with fluconazole,Candida albicans,does not show such synergistic effect
